Assay results: patent publication US10131652B2, “Pyrimidinyloxy benzene derivatives as herbicides” (E. I. DU PONT DE NEMOURS AND COMPANY, priority 2014, dated 2018)

Experiments:
Assay type in all cases: in vivo
rice (Oryza sativa) = experiment: Test C flooded paddy test plant response; settings: Flood, 250 g ai/ha; scale of 0 to 100 where 0 is no effect and 100 is complete control; 13 to 15 days
Method in brief: (§1)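 Flooded-pot format, 3 cm water over soil maintained for the test duration; test compounds dispensed into the water at the 2-leaf stage. Greenhouse holding 13 to 15 days. Plants evaluated visually relative to untreated controls, 0 meaning no effect and 100 complete control.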

[1] = system: small-flower umbrella sedge (Cyperus difformis); experiment: Test C flooded paddy test plant response; settings: Flood, 250 g ai/ha; scale of 0 to 100 where 0 is no effect and 100 is complete control; 13 to 15 days
Method in brief: as §1

[2] = system: barnyardgrass (Echinochloa crus-galli); experiment: Test C flooded paddy test plant response; settings: Flood, 250 g ai/ha; scale of 0 to 100 where 0 is no effect and 100 is complete control; 13 to 15 days
Method in brief: as §1

[3] = system: ducksalad (Heteranthera limosa); experiment: Test C flooded paddy test plant response; settings: Flood, 250 g ai/ha; scale of 0 to 100 where 0 is no effect and 100 is complete control; 13 to 15 days
Method in brief: as §1

[4] = system: johnsongrass (Sorghum halepense); experiment: Test D pre-/postemergence plant response
Method in brief: (§2)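 Sown seed (loam/sand soil) treated preemergence; emerged plants, 1- to 4-leaf stage and 2 to 18 cm, treated postemergence in peat/vermiculite medium. Greenhouse incubation 13–15 d. Endpoint: visual 0–100 rating versus untreated.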

[5] = system: velvetleaf (Abutilon theophrasti); experiment: Test D pre-/postemergence plant response
Method in brief: as §2

[6] = system: giant foxtail (Setaria faberii); experiment: Test D pre-/postemergence plant response
Method in brief: as §2

[7] = system: pigweed (Amaranthus retroflexus); experiment: Test D pre-/postemergence plant response
Method in brief: as §2

[8] = system: barnyardgrass (Echinochloa crus-galli); experiment: Test D pre-/postemergence plant response
Method in brief: as §2

[9] = system: blackgrass (Alopecurus myosuroides); experiment: Test D pre-/postemergence plant response
Method in brief: as §2

[10] = system: oilseed rape (Brassica napus); experiment: Test D pre-/postemergence plant response
Method in brief: as §2

[11] = system: ragweed (common ragweed, Ambrosia elatior); experiment: Test B pre-/postemergence plant response
Method in brief: (§3)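 Ratings reflect visual injury versus untreated controls, from 0 for no effect to 100 for complete control, assessed roughly 10 days after treatment. Formulation: non-phytotoxic solvent mix with surfactant; pre- and postemergence sprays on plants grown in loam soil and sand.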

[12] = system: Italian ryegrass (Lolium multiflorum); experiment: Test B pre-/postemergence plant response
Method in brief: as §3

kochia (Kochia scoparia) = experiment: Test B pre-/postemergence plant response
Method in brief: as §3

[13] = Postemergence, 31 g ai/ha, scale 0 to 100 (0 no effect, 100 complete control)
[14] = Postemergence, 62 g ai/ha, scale 0 to 100, 0 no effect, 100 complete control
[15] = Postemergence, 125 g ai/ha, scale 0 to 100, 0 no effect, 100 complete control
[16] = Preemergence, 16 g ai/ha, scale 0 to 100 (0 no effect, 100 complete control)
[17] = Preemergence, 31 g ai/ha, scale 0 to 100 (0 no effect, 100 complete control)
[18] = Preemergence, 62 g ai/ha, scale 0 to 100 (0 no effect, 100 complete control)
[19] = 125 g ai/ha, postemergence, 0 to 100 scale, 0 no effect, 100 complete control
[20] = Postemergence, 500 g ai/ha, 0 to 100 scale (0 no effect, 100 complete control)
[21] = Preemergence, 125 g ai/ha, 0 to 100 scale (0 no effect, 100 complete control)
[22] = Preemergence, 500 g ai/ha, 0 to 100 scale where 0 is no effect and 100 is complete control
[23] = Postemergence, 1000 g ai/ha, 0 to 100 scale (0 no effect, 100 complete control)
[24] = Preemergence, 1000 g ai/ha, 0 to 100 scale (0 no effect, 100 complete control)

Clc1cnc(Oc2ccccc2-c2cc(C3CC3)on2)nc1 [Compound 183]
70: Plant response rating, Ryegrass, Italian [12, 20]
20: Plant response rating, Johnsongrass [4, 18] | Plant response rating, Blackgrass [9, 15] | Plant response rating, Ragweed [11, 19] | Ryegrass, Italian plant response rating [12, 21]
10: Plant response rating, Johnsongrass [4, 15]
50: Plant response rating, Pigweed [7, 16] | Plant response rating (scale 0 to 100), Blackgrass ([9]; Preemergence, 125 g ai/ha) | Plant response rating, Oilseed Rape [10, 16]
45: Plant response rating (scale 0 to 100), Johnsongrass ([4]; Preemergence, 125 g ai/ha)
55: Velvetleaf plant response rating [5, 13] | Velvetleaf plant response rating [5, 14] | Plant response rating, Velvetleaf [5, 15] | Plant response rating (scale 0 to 100), Pigweed ([7]; Postemergence, 16 g ai/ha)
75: Sedge, Umbrella plant response rating [1]
35: Plant response rating, Foxtail, Giant [6, 17]
100: Plant response rating (scale 0 to 100), Velvetleaf ([5]; Preemergence, 125 g ai/ha) | Plant response rating (scale 0 to 100), Foxtail, Giant ([6]; Preemergence, 125 g ai/ha) | Plant response rating (scale 0 to 100), Pigweed ([7]; Preemergence, 125 g ai/ha) | Plant response rating, Pigweed [7, 18] | Oilseed Rape plant response rating [10, 14] | Plant response rating, Oilseed Rape [10, 15] | Plant response rating (scale 0 to 100), Oilseed Rape ([10]; Preemergence, 125 g ai/ha) | Plant response rating, Oilseed Rape [10, 17] | Plant response rating, Oilseed Rape [10, 18] | Plant response rating, Kochia (kochia (Kochia scoparia); [19]) | Plant response rating, Kochia (kochia (Kochia scoparia); [20]) | Plant response rating, Kochia (kochia (Kochia scoparia); [22])
60: Plant response rating, Pigweed [7, 17] | Plant response rating, Ragweed [11, 22]
30: Plant response rating (scale 0 to 100), Velvetleaf ([5]; Postemergence, 16 g ai/ha) | Plant response rating, Barnyardgrass [8, 18] | Plant response rating, Ragweed [11, 20]
40: Plant response rating, Velvetleaf [5, 16] | Plant response rating, Ryegrass, Italian [12, 19] | Plant response rating, Ryegrass, Italian [12, 22]
95: Plant response rating, Pigweed [7, 15]
5: Johnsongrass plant response rating [4, 13] | Plant response rating, Johnsongrass [4, 14] | Plant response rating, Johnsongrass [4, 17] | Plant response rating (scale 0 to 100), Foxtail, Giant ([6]; Postemergence, 16 g ai/ha) | Foxtail, Giant plant response rating [6, 13] | Plant response rating, Foxtail, Giant [6, 14] | Plant response rating, Foxtail, Giant [6, 15] | Plant response rating, Foxtail, Giant [6, 16] | Plant response rating (scale 0 to 100), Barnyardgrass ([8]; Postemergence, 16 g ai/ha) | Barnyardgrass plant response rating [8, 13] | Plant response rating, Barnyardgrass [8, 14] | Plant response rating, Barnyardgrass [8, 15] | Plant response rating, Barnyardgrass [8, 16] | Plant response rating, Barnyardgrass [8, 17] | Blackgrass plant response rating [9, 13] | Plant response rating, Blackgrass [9, 14] | Plant response rating (scale 0 to 100), Oilseed Rape ([10]; Postemergence, 16 g ai/ha)
0: Rice plant response rating (rice (Oryza sativa)) | Barnyardgrass plant response rating [2] | Plant response rating (scale 0 to 100), Johnsongrass ([4]; Postemergence, 16 g ai/ha) | Plant response rating, Johnsongrass [4, 16] | Plant response rating (scale 0 to 100), Blackgrass ([9]; Postemergence, 16 g ai/ha) | Plant response rating, Blackgrass [9, 16] | Plant response rating, Blackgrass [9, 17] | Plant response rating, Blackgrass [9, 18] | Ragweed plant response rating [11, 21]
85: Ducksalad plant response rating [3] | Pigweed plant response rating [7, 13] | Pigweed plant response rating [7, 14] | Oilseed Rape plant response rating [10, 13]
80: Plant response rating, Velvetleaf [5, 17] | Plant response rating, Foxtail, Giant [6, 18] | Kochia plant response rating (kochia (Kochia scoparia); [21])
90: Plant response rating, Velvetleaf [5, 18] | Plant response rating (scale 0 to 100), Barnyardgrass ([8]; Preemergence, 125 g ai/ha)

Clc1cnc(Oc2ccccc2-c2ccon2)nc1 [Compound 185]
5: Plant response rating, Johnsongrass [4, 14] | Plant response rating, Johnsongrass [4, 15] | Plant response rating (scale 0 to 100), Velvetleaf ([5]; Postemergence, 16 g ai/ha) | Foxtail, Giant plant response rating [6, 13] | Plant response rating, Foxtail, Giant [6, 14] | Plant response rating, Foxtail, Giant [6, 15] | Plant response rating, Barnyardgrass [8, 15]
40: Kochia plant response rating (kochia (Kochia scoparia); [21])
25: Plant response rating, Velvetleaf [5, 15]
90: Plant response rating, Ragweed [11, 22] | Plant response rating, Kochia (kochia (Kochia scoparia); [19])
70: Plant response rating, Ragweed [11, 19]
35: Plant response rating (scale 0 to 100), Foxtail, Giant ([6]; Postemergence, 16 g ai/ha) | Pigweed plant response rating [7, 13] | Pigweed plant response rating [7, 14]
10: Velvetleaf plant response rating [5, 13] | Velvetleaf plant response rating [5, 14] | Plant response rating (scale 0 to 100), Pigweed ([7]; Postemergence, 16 g ai/ha) | Ragweed plant response rating [11, 21]
100: Plant response rating, Ragweed [11, 20] | Plant response rating, Kochia (kochia (Kochia scoparia); [20]) | Plant response rating, Kochia (kochia (Kochia scoparia); [22])
50: Plant response rating, Pigweed [7, 15]
0: Rice plant response rating (rice (Oryza sativa)) | Sedge, Umbrella plant response rating [1] | Barnyardgrass plant response rating [2] | Ducksalad plant response rating [3] | Plant response rating (scale 0 to 100), Johnsongrass ([4]; Postemergence, 16 g ai/ha) | Johnsongrass plant response rating [4, 13] | Plant response rating (scale 0 to 100), Barnyardgrass ([8]; Postemergence, 16 g ai/ha) | Barnyardgrass plant response rating [8, 13] | Plant response rating, Barnyardgrass [8, 14] | Plant response rating (scale 0 to 100), Blackgrass ([9]; Postemergence, 16 g ai/ha) | Blackgrass plant response rating [9, 13] | Plant response rating, Blackgrass [9, 14] | Plant response rating, Blackgrass [9, 15] | Plant response rating (scale 0 to 100), Oilseed Rape ([10]; Postemergence, 16 g ai/ha) | Oilseed Rape plant response rating [10, 13] | Oilseed Rape plant response rating [10, 14] | Plant response rating, Oilseed Rape [10, 15] | Plant response rating, Ryegrass, Italian [12, 19] | Plant response rating, Ryegrass, Italian [12, 20] | Ryegrass, Italian plant response rating [12, 21] | Plant response rating, Ryegrass, Italian [12, 22]

FCc1cc(-c2c(Br)cccc2Oc2ncc(Cl)cn2)no1 [Compound 191]
20: Barnyardgrass plant response rating [2]
10: Plant response rating, Barnyardgrass [8, 15]
80: Ducksalad plant response rating [3]
90: Plant response rating, Oilseed Rape [10, 15] | Plant response rating, Ragweed [11, 23] | Plant response rating, Ragweed [11, 24] | Plant response rating, Ryegrass, Italian [12, 24]
50: Plant response rating, Velvetleaf [5, 15]
60: Plant response rating, Pigweed [7, 15] | Oilseed Rape plant response rating [10, 14]
35: Plant response rating (scale 0 to 100), Pigweed ([7]; Postemergence, 16 g ai/ha)
15: Plant response rating (scale 0 to 100), Velvetleaf ([5]; Postemergence, 16 g ai/ha)
5: Plant response rating (scale 0 to 100), Johnsongrass ([4]; Postemergence, 16 g ai/ha) | Johnsongrass plant response rating [4, 13] | Plant response rating, Johnsongrass [4, 14] | Plant response rating, Johnsongrass [4, 15] | Plant response rating (scale 0 to 100), Foxtail, Giant ([6]; Postemergence, 16 g ai/ha) | Foxtail, Giant plant response rating [6, 13] | Plant response rating, Foxtail, Giant [6, 14] | Plant response rating, Foxtail, Giant [6, 15] | Plant response rating (scale 0 to 100), Barnyardgrass ([8]; Postemergence, 16 g ai/ha) | Barnyardgrass plant response rating [8, 13] | Plant response rating, Barnyardgrass [8, 14] | Plant response rating, Blackgrass [9, 15]
85: Sedge, Umbrella plant response rating [1]
0: Rice plant response rating (rice (Oryza sativa)) | Plant response rating (scale 0 to 100), Blackgrass ([9]; Postemergence, 16 g ai/ha) | Blackgrass plant response rating [9, 13] | Plant response rating, Blackgrass [9, 14] | Plant response rating (scale 0 to 100), Oilseed Rape ([10]; Postemergence, 16 g ai/ha)
40: Oilseed Rape plant response rating [10, 13]
100: Plant response rating, Ryegrass, Italian [12, 23] | Plant response rating, Kochia (kochia (Kochia scoparia); [23]) | Plant response rating, Kochia (kochia (Kochia scoparia); [24])
30: Velvetleaf plant response rating [5, 13] | Velvetleaf plant response rating [5, 14] | Pigweed plant response rating [7, 13] | Pigweed plant response rating [7, 14]
